Experimental findings from ChEMBL document CHEMBL4421728, “Bach1 Inhibitors in Combination with Nrf2 Activators and Pharmaceutical Compositions Thereof” (2017) are described below.

Experiment [1] deals with T1, Transcription regulator protein BACH1 (Homo sapiens) (UniProt O14867).
T1 sequence (whole entry): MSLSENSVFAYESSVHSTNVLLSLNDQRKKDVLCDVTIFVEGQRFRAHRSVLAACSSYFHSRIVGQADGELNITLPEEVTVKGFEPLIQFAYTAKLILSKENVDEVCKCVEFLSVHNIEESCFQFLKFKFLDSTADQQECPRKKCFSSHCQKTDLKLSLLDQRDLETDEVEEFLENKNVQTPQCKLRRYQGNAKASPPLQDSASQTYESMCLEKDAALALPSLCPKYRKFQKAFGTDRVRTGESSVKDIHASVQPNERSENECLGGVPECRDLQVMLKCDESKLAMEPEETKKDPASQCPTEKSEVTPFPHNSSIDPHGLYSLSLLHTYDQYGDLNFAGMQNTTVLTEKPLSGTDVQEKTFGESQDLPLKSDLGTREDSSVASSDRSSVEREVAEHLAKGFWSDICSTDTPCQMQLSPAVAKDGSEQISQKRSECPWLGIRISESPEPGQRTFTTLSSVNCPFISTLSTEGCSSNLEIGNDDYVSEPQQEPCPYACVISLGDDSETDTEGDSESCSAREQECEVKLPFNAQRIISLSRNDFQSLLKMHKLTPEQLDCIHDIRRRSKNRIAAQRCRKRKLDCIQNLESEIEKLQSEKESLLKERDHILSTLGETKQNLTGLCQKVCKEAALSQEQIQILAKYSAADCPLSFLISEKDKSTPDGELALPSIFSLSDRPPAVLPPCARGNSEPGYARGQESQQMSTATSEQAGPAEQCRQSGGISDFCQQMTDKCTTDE
Description: Inhibition of Bach1 in normal human lung fibroblasts assessed as induction of HMOX protein expression at 2.5 uM incubated for 16 to 18 hrs by immunostaining relative to control.

For experiment [2], the target named is T1, Transcription regulator protein BACH1 (Homo sapiens). Description: Inhibition of Bach1 in normal human lung fibroblasts assessed as induction of HMOX protein expression at 0.019 uM incubated for 16 to 18 hrs in presence of 0.019 uM Nrf2 activator Bardoxolone methyl by immunostaining relative to control.
Experiment [3] has the same target. Description: Inhibition of Bach1 in normal human lung fibroblasts assessed as induction of HMOX protein expression at 2.5 uM incubated for 16 to 18 hrs in presence of 0.312 uM Nrf2 activator Bardoxolone methyl by immunostaining relative to control.
The target is the same in experiment [4]. Description: Inhibition of Bach1 in normal human lung fibroblasts assessed as induction of HMOX protein expression at 1.25 uM incubated for 16 to 18 hrs in presence of 0.078 uM Nrf2 activator Bardoxolone methyl by immunostaining relative to control.
Experiment [5] has the same target. Description: Inhibition of Bach1 in normal human lung fibroblasts assessed as induction of HMOX protein expression at 0.312 uM incubated for 16 to 18 hrs in presence of 0.019 uM Nrf2 activator Bardoxolone methyl by immunostaining relative to control.
Experiment [6] has the same target. Description: Inhibition of Bach1 in normal human lung fibroblasts assessed as induction of HMOX protein expression at 0.078 uM incubated for 16 to 18 hrs in presence of 0.0097 uM Nrf2 activator Bardoxolone methyl by immunostaining relative to control.
The target is the same in experiment [7]. Description: Inhibition of Bach1 in normal human lung fibroblasts assessed as induction of HMOX protein expression at 0.312 uM incubated for 16 to 18 hrs in presence of 0.156 uM Nrf2 activator Bardoxolone methyl by immunostaining relative to control.
Experiment [8] shares this target. Description: Inhibition of Bach1 in normal human lung fibroblasts assessed as induction of HMOX protein expression at 0.156 uM incubated for 16 to 18 hrs in presence of 0.0097 uM Nrf2 activator Bardoxolone methyl by immunostaining relative to control.
The target is the same in experiment [9]. Description: Inhibition of Bach1 in normal human lung fibroblasts assessed as induction of HMOX protein expression at 0.039 uM incubated for 16 to 18 hrs in presence of 0.0048 uM Nrf2 activator Bardoxolone methyl by immunostaining relative to control.
Experiment [10] shares this target. Description: Inhibition of Bach1 in normal human lung fibroblasts assessed as induction of HMOX protein expression at 1.25 uM incubated for 16 to 18 hrs in presence of 0.0048 uM Nrf2 activator Bardoxolone methyl by immunostaining relative to control.
The target is the same in experiment [11]. Description: Inhibition of Bach1 in normal human lung fibroblasts assessed as induction of HMOX protein expression at 0.625 uM incubated for 16 to 18 hrs in presence of 0.0097 uM Nrf2 activator Bardoxolone methyl by immunostaining relative to control.
Experiment [12] has the same target. Description: Inhibition of Bach1 in normal human lung fibroblasts assessed as induction of HMOX protein expression at 0.625 uM incubated for 16 to 18 hrs in presence of 0.156 uM Nrf2 activator Bardoxolone methyl by immunostaining relative to control.

Molecules are shown by their SMILES.

For `CNC(=O)c1ccc2c(c1)nc(Nc1nc3ccc(OC(F)(F)F)cc3s1)n2C`, the fold change (FC) in experiment [1] turned out to be 17.5; in experiment [2] it was 10; in [3], 10; in [4], 15.2; in [5] it was 17.7; in experiment [6], 8.43. Moreover, the fold change (FC) is 19.2 in experiment [7]; 12.1 in experiment [8]; 3.04 in [9]; 17.3 in experiment [10]; 17.2 in experiment [11]; 18.7 in experiment [12].
